In US20250034110A1, “LPAR1 ANTAGONISTS AND USES THEREOF” (Pipeline Therapeutics, Inc., priority 2021, published 2025):

molecular target: human LPAR1 (Homo sapiens, UniProt Q92633); assay: In vitro functional assay of lysophosphatidic acid receptor 1 activity (calcium flux); type: cell-based; conditions: B103 cells stably expressing human LPAR1; calcium flux (Fluo-4 NW) after lysophosphatidic acid (18:1) at EC80; 100 pM to 10 μM; read-out: LPAR1 IC50
Sequence (Q92633 whole entry): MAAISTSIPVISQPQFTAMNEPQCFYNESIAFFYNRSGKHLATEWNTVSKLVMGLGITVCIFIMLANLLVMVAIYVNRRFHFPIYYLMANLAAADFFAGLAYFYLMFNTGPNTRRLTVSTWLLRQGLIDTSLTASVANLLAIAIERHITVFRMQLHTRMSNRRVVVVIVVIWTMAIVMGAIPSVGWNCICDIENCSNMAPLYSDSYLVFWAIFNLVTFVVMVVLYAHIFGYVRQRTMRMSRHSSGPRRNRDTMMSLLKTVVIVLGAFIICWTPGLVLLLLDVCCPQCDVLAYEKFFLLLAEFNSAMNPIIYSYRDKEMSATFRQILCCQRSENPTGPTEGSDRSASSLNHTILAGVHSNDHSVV

Row | SMILES | IC50
1 | CC(=O)N1CC[C@H]1CN(C(=O)Nc1ccc(C)nc1OC(F)F)c1ccccc1C(C)C [Example 72, (S)-1-((1-acetylazetidin-2-yl)methyl)-3-(2-(difluoromethoxy)-6-methylpyridin-3-yl)-1-(2-isopropylphenyl)urea] | 0.1 to 1 µM
2 | Cc1ccc(NC(=O)N(c2ccccc2C(C)C)C2CN(S(C)(=O)=O)C2)c(OC(F)F)n1 [Example 74, 3-(2-(difluoromethoxy)-6-methylpyridin-3-yl)-1-(2-isopropylphenyl)-1-(1-(methylsulfonyl)azetidin-3-yl)urea] | 0.1 to 1 µM
3 | Cc1ccc(NC(=O)N(c2ccccc2C(C)C)[C@H]2CCN(S(C)(=O)=O)C2)c(OC(F)F)n1 [Example 75, (S)-3-(2-(difluoromethoxy)-6-methylpyridin-3-yl)-1-(2-isopropylphenyl)-1-(1-(methylsulfonyl)pyrrolidin-3-yl)urea] | 0.01 to 0.1 µM
4 | Cc1ccc(NC(=O)N(c2ccccc2C(C)C)C2CC3(C2)CN(S(C)(=O)=O)C3)c(OC(F)F)n1 [Example 76, 3-(2-(difluoromethoxy)-6-methylpyridin-3-yl)-1-(2-isopropylphenyl)-1-(2-(methylsulfonyl)-2-azaspiro[3.3]heptan-6-yl)urea] | 0.1 to 1 µM
5 | COC(=O)N1CC(N(C(=O)Nc2ccc(C)nc2OC(F)F)c2ccccc2C(C)C)C1 [Example 77, methyl 3-(3-(2-(difluoromethoxy)-6-methylpyridin-3-yl)-l-(2-isopropylphenyl)ureido)azetidine-1-carboxylate] | 0.01 to 0.1 µM
6 | CCOC(=O)N1CC(N(C(=O)Nc2ccc(C)nc2OC(F)F)c2ccccc2C(C)C)C1 [Example 78, ethyl 3-(3-(2-(difluoromethoxy)-6-methylpyridin-3-yl)-1-(2-isopropylphenyl)ureido)azetidine-1-carboxylate] | 0.01 to 0.1 µM
7 | Cc1ccc(NC(=O)N(c2ccccc2C(C)C)C2CN(C(=O)Cn3nccn3)C2)c(OC(F)F)n1 [Example 80, 1-(1-(2-(2H-1,2,3-triazol-2-yl)acetyl)azetidin-3-yl)-3-(2-(difluoromethoxy)-6-methylpyridin-3-yl)-1-(2-isopropylphenyl)urea] | 0.1 to 1 µM
8 | Cc1ccc(NC(=O)N(c2ccccc2C(C)C)C2CN(C(=O)CC#N)C2)c(OC(F)F)n1 [Example 81, 1-(1-(2-cyanoacetyl)azetidin-3-yl)-3-(2-(difluoromethoxy)-6-methylpyridin-3-yl)-1-(2-isopropylphenyl)urea] | 0.01 to 0.1 µM
9 | COCC(=O)N1CC(N(C(=O)Nc2ccc(C)nc2OC(F)F)c2ccccc2C(C)C)C1 [Example 82, 3-(2-(difluoromethoxy)-6-methylpyridin-3-yl)-1-(2-isopropylphenyl)-1-(1-(2-methoxyacetyl)azetidin-3-yl)urea] | 0.01 to 0.1 µM
10 | Cc1ccc(NC(=O)N(c2ccccc2C(C)C)[C@H]2CCN(C(=O)Cn3nccn3)C2)c(OC(F)F)n1 [Example 83, (S)-1-(1-(2-(2H-1,2,3-triazol-2-yl)acetyl)pyrrolidin-3-yl)-3-(2-(difluoromethoxy)-6-methylpyridin-3-yl)-1-(2-isopropylphenyl)urea] | 0.1 to 1 µM
11 | Cc1ccc(NC(=O)N(c2ccccc2C(C)C)C2CC3(C2)CN(C(=O)Cn2nccn2)C3)c(OC(F)F)n1 [Example 84, 1-(2-(2-(2H-1,2,3-triazol-2-yl)acetyl)-2-azaspiro[3.3]heptan-6-yl)-3-(2-(difluoromethoxy)-6-methylpyridin-3-yl)-1-(2-isopropylphenyl)urea] | 0.1 to 1 µM
12 | CC(=O)N1CC(N(C(=O)Nc2ccc(C)cc2OC(F)F)c2ccccc2C(C)C)C1 [Example 117, 1-(1-acetylazetidin-3-yl)-3-(2-(difluoromethoxy)-4-methylphenyl)-1-(2-isopropylphenyl)urea] | 0.01 to 0.1 µM
13 | COc1ccc(NC(=O)N(c2ccccc2C(C)C)C2CN(C(C)=O)C2)c(OC)n1 [Example 118] | 0.1 to 1 µM
14 | COc1ccc(NC(=O)N(c2ccccc2C(C)C)C2CN(C(C)=O)C2)c(OC)c1C [Example 119] | 0.1 to 1 µM
15 | CC(=O)N1CC(N(C(=O)Nc2ncc(Cl)cc2OC(F)F)c2ccccc2C(C)C)C1 [Example 120] | 0.1 to 1 µM
16 | CC(=O)N1CC2(CC(N(C(=O)Nc3ncc(Br)cc3OC(F)F)c3ccccc3C(C)C)C2)C1 [Example 123, 1-(2-acetyl-2-azaspiro[3.3]heptan-6-yl)-3-(5-bromo-3-(difluoromethoxy)pyridin-2-yl)-1-(2-isopropylphenyl)urea] | 0.1 to 1 µM
17 | CC(=O)N1CC2(CC(N(C(=O)Nc3ncc(Cl)cc3OC(F)F)c3ccccc3C(C)C)C2)C1 [Example 124] | 0.1 to 1 µM
18 | CC(=O)N1CC2(CC(N(C(=O)Nc3ccc(C)cc3OC(F)F)c3ccccc3C(C)C)C2)C1 [Example 125, 1-(2-acetyl-2-azaspiro[3.3]heptan-6-yl)-3-(2-(difluoromethoxy)-4-methylphenyl)-1-(2-isopropylphenyl)urea] | 0.01 to 0.1 µM
19 | Cc1ccc(NC(=O)N(c2ccccc2C(C)C)C2CC3(C2)CN(C(=O)NC2CC2)C3)c(OC(F)F)c1 [Example 126] | 0.01 to 0.1 µM
20 | Cc1ccc(NC(=O)N(c2ccccc2C(C)C)C2CN(S(N)(=O)=O)C2)c(OC(F)F)n1 [Example 127, 3-(3-(2-(difluoromethoxy)-6-methylpyridin-3-yl)-1-(2-isopropylphenyl)ureido)azetidine-1-sulfonamide] | 0.01 to 0.1 µM
21 | Cc1ccc(NC(=O)N(c2ccccc2C(C)C)C2CC3(C2)CN(S(N)(=O)=O)C3)c(OC(F)F)c1 [Example 128] | 0.01 to 0.1 µM
22 | COc1ccc(NC(=O)N(c2ccccc2C(C)C)[C@H]2CC[C@H](C(=O)O)CC2)c(OC(F)F)n1 [Example 144, trans-4-(3-(2-(difluoromethoxy)-6-methoxypyridin-3-yl)-1-(2-isopropylphenyl)ureido)cyclohexane-1-carboxylic acid] | 0.01 to 0.1 µM
23 | COc1ccc(NC(=O)N(c2ccccc2C(C)C)[C@H]2CC[C@@H](C(=O)O)CC2)c(OC(F)F)n1 [Example 145] | 0.1 to 1 µM
24 | COc1ccc(NC(=O)N(c2ccccc2C(C)C)[C@H]2CCC[C@H](C(=O)O)C2)c(OC(F)F)n1 [Example 146] | 0.01 to 0.1 µM
25 | COc1ccc(NC(=O)N(c2ccccc2C(C)C)[C@H]2CCC[C@@H](C(=O)O)C2)c(OC(F)F)n1 [Example 147] | < 0.01 µM
26 | COc1ccc(NC(=O)N(c2ccccc2C(C)C)C2CC(CC(=O)O)C2)c(OC(F)F)n1 (stereo not drawn) [Example 148] | < 0.01 µM

same assay, conditions: LPAR1 IC50

Row | SMILES | IC50
27 | Cc1ccc(NC(=O)N(c2ccccc2C(C)C)C2CCN(S(C)(=O)=O)CC2)c(OC(F)F)n1 [Example 73, 3-(2-(difluoromethoxy)-6-methylpyridin-3-yl)-1-(2-isopropylphenyl)-1-(1-(methylsulfonyl)piperidin-4-yl)urea] | < 0.01 µM
28 | Cc1ccc(NC(=O)N(c2ccccc2C(C)C)C2CCN(C(=O)Cn3nccn3)CC2)c(OC(F)F)n1 [Example 79, 1-(1-(2-(2H-1,2,3-triazol-2-yl)acetyl)piperidin-4-yl)-3-(2-(difluoromethoxy)-6-methylpyridin-3-yl)-1-(2-isopropylphenyl)urea] | < 0.01 µM
29 | COc1ccc(NC(=O)N(c2ccccc2C(C)C)C2CCN(C(=O)CC#N)CC2)c(OC(F)F)n1 [Example 85, 1-(1-(2-cyanoacetyl)piperidin-4-yl)-3-(2-(difluoromethoxy)-6-methoxypyridin-3-yl)-1-(2-isopropylphenyl)urea] | 0.01 to 0.1 µM
30 | COc1ccc(NC(=O)N(c2ccccc2C(C)C)C2CCN(C(C)=O)CC2)c(OC(F)F)n1 [Example 86, 1-(1-acetylpiperidin-4-yl)-3-(2-(difluoromethoxy)-6-methoxypyridin-3-yl)-1-(2-isopropylphenyl)urea] | 0.01 to 0.1 µM
31 | CC(=O)N1CCC(N(C(=O)Nc2ccc(C(F)(F)F)nc2C)c2ccccc2C(C)C)CC1 [Example 88] | > 1 µM
32 | CC(=O)N1CCC(N(C(=O)Nc2cccnc2OC(F)F)c2ccccc2C(C)C)CC1 [Example 91] | 0.01 to 0.1 µM
33 | CC(=O)N1CCC(N(C(=O)Nc2ccc(C)nc2OCC(F)(F)F)c2ccccc2C(C)C)CC1 [Example 104] | 0.1 to 1 µM
34 | CCOc1nc(C)ccc1NC(=O)N(c1ccccc1C(C)C)C1CCN(C(C)=O)CC1 [Example 105] | 0.1 to 1 µM
35 | COc1ccc(NC(=O)N(c2ccccc2C(C)C)C2CCN(C(C)=O)CC2)c(OCC(F)F)n1 [Example 106] | 0.01 to 0.1 µM
36 | CCOc1ccc(NC(=O)N(c2ccccc2C(C)C)C2CCN(C(C)=O)CC2)c(OC(F)F)n1 [Example 107] | 0.01 to 0.1 µM
37 | CC(=O)N1CCC(N(C(=O)Nc2ccc(OC(F)F)nc2Cl)c2ccccc2C(C)C)CC1 [Example 108] | 0.1 to 1 µM
38 | COc1nc(C(F)F)ccc1NC(=O)N(c1ccccc1C(C)C)C1CCN(C(C)=O)CC1 [Example 113] | 0.01 to 0.1 µM
39 | CC(=O)N1CCC(N(C(=O)Nc2ccc(C(F)F)nc2OC(F)F)c2ccccc2C(C)C)CC1 [Example 115] | 0.01 to 0.1 µM
40 | CC(=O)N1CCC(N(C(=O)Nc2ncc(Br)cc2OC(F)F)c2ccccc2C(C)C)CC1 [Example 129, 1-(1-acetylpiperidin-4-yl)-3-(5-bromo-3-(difluoromethoxy)pyridin-2-yl)-1-(2-isopropylphenyl)urea] | 0.01 to 0.1 µM
41 | CC(=O)N1CCC(N(C(=O)Nc2cnccn2)c2ccccc2C(C)C)CC1 [Example 130] | > 1 µM
42 | CC(=O)N1CCC(N(C(=O)Nc2cnc(C)cn2)c2ccccc2C(C)C)CC1 [Example 131] | 0.1 to 1 µM
43 | CC(=O)N1CCC(N(C(=O)Nc2cnc(C(F)(F)F)cn2)c2ccccc2C(C)C)CC1 [Example 132] | > 1 µM
44 | CC(=O)N1CCC(N(C(=O)Nc2ncc(F)cc2Br)c2ccccc2C(C)C)CC1 [Example 137] | > 1 µM
45 | CC(=O)N1CCC(N(C(=O)Nc2ncc(C(F)(F)F)cc2Br)c2ccccc2C(C)C)CC1 [Example 139] | > 1 µM
46 | CC(=O)N1CCC(N(C(=O)Nc2ncc(Br)cc2C=O)c2ccccc2C(C)C)CC1 [Example 140] | 0.1 to 1 µM
47 | CC(=O)N1CCC(N(C(=O)Nc2ncc(Br)cc2OC(F)F)c2ncccc2C(C)C)CC1 [Example 142] | > 1 µM
48 | CC(=O)N1CCC(N(C(=O)Nc2ccc(C)cn2)c2ccccc2C(C)C)CC1 [Example 143, 1-(1-acetylpiperidin-4-yl)-1-(2-isopropylphenyl)-3-(5-methylpyridin-2-yl)urea] | > 1 µM
